# In patent US20150011528A1, “PHENYLIMIDE-CONTAINING BENZOTHIAZOLE DERIVATIVE OF ITS SALT AND PHARMACEUTICAL COMPOSITION COMPRISING THE SAME” (YUHAN CORPORATION, priority 2011, published 2015):
# What was measured:
# Type in all cases: cell-based
# [1] = biological target: T1, binding between KRS and AIMP3 (Homo sapiens, UniProt Q15046); assay: Yeast Two Hybrid specificity test, LexA-KRS / B42-AIMP3 co-transformed yeast cells; details: 1 μL of 20 mM DMSO solution per 200 μL culture; 30° C., 6 days; absorbance 540 nm; non-treated control = 100%
# T1 construct: expressed in transfected cells; host or cells: yeast cells (co-transformed)
# T1 sequence (Q15046 whole entry): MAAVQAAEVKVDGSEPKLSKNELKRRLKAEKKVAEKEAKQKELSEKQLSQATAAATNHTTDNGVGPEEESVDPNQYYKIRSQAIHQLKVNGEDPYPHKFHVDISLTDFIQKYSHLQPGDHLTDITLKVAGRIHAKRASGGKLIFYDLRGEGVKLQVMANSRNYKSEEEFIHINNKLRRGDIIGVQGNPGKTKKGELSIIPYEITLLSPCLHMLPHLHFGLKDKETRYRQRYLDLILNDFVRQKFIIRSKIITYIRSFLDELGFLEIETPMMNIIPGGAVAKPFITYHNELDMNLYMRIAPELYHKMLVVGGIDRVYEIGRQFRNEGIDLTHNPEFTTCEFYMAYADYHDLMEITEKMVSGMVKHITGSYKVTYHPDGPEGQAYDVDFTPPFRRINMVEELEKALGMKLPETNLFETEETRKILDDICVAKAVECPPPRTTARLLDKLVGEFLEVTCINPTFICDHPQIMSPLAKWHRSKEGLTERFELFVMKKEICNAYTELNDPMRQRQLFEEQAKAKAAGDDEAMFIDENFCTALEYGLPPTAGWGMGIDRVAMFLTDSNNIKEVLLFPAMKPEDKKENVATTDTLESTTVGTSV
# Description: (§1) And also, specificity of the inhibitory activity was evaluated, using the yeast cells cotransformed with the LexA-KRS vector and the B42-AIMP2 vector; and the yeast cells co-transformed with the LexA-KRS vector and the B42-AIMP3 vector, which were respectively prepared according to WO2011/056021. The co-transformation was carried out using the Yeastmaker yeast transformation system2 kit (Clontech), according to the manufacturer's instruction. […] The cultured yeast cells were diluted with the said galactose medium, until the absorbance at 540 nm attains to about 0.15 to 0.2. The diluted culture (200 μL), containing the yeast cells, was added to each well of a 96-well plate. Each test compound was dissolved in dimethyl sulfoxide at a concentration of 20 mM and then the resulting solutions (1 μL) were added to each well. The plate was cultured at 30° C. for 6 days and then the absorbance of each well was measured at 540 nm. The respective yeast cell proliferation rates (%) in the treated samples were calculated in comparison with those of the non-treated control (100%) and the results thereof are shown in Table 1 below.
# [2] = biological target: T2, binding between KRS and AIMP2 (Homo sapiens, UniProt Q15046); assay: Yeast Two Hybrid specificity test, LexA-KRS / B42-AIMP2 co-transformed yeast cells; details: 1 μL of 20 mM DMSO solution per 200 μL culture; 30° C., 6 days; absorbance 540 nm; non-treated control = 100%
# T2 construct: expressed in transfected cells; host or cells: yeast cells (co-transformed)
# T2 sequence (Q15046 whole entry): as above
# Description: as §1
# A549 cells = assay: Cell Migration Assay (transwell, laminin); details: Homo sapiens, laminin 10 μg/mL in lower well, test compounds 0.39˜100 μM, 6 hours at 37° C.
# Description: Cell migration was measured with a 24-well transwell having a polycarbonate membrane (8.0 μm pore size, Costar) at the bottom of the upper chamber. Each lower well was treated with laminin (10 μg/mL) and test compounds (0.39˜100 μM) along with a serum-free RPMI1640 medium. A549 cells (Korean Cell Line Bank) were suspended in a serum-free RPMI1640 medium at a concentration of 1×10^6 cells/mL and then the test compounds were added thereto at the indicated concentrations. Each resulting solution (100 μL) was added to the upper chamber. The cells were cultured at 37° C. for 6 hours in a CO2 incubator. The upper chamber was taken out and then the cells were fixed with PBS containing 70% methyl alcohol for 10 minutes, followed by washing with PBS twice. The cells were stained with hematoxylin (Sigma) for 10 minutes and then washed with distilled water. The non-migrated cells were removed from the upper portion of the polycarbonate membrane with a cotton swab. The membranes were excised and separated from the chamber, and then mounted to a slide using a gel mount reagent (Biomeda, USA). The migrated cells (attached to the lower face of the membrane) were counted at three randomly selected sites under a microscope (×20). The cell counting was performed with the Image J program. From the counted cell numbers, each IC50 value was calculated by non-linear regression curve fit using the “GraphPad Prism” program.
# The cells are pulled by laminin residing in the lower chamber and then passed through the polycarbonate membrane, so as to attach to the lower face of the membrane.
# [3] = biological target: T3, interaction between the KRS protein and the laminin receptor (LR) (Homo sapiens, UniProt Q15046); assay: Yeast Two Hybrid inhibition of the interaction between the KRS protein and the laminin receptor (LR); details: 1 μL of 20 mM DMSO solution per 200 μL culture; 30° C., 6 days; absorbance 540 nm; non-treated control = 100%
# T3 construct: expressed in transfected cells; host or cells: yeast EGY/SH cells
# T3 sequence (Q15046 whole entry): as above
# Description: The inhibitory activity against the interaction between the KRS protein and the laminin receptor (LR) was evaluated according to the Yeast Two Hybrid method described in WO2011/056021. According to the disclosures of WO2011/056021, we prepared a vector obtained by cloning the KRS gene in the LexA vector (Clontech) and a vector obtained by cloning the LR gene in the B42 vector (Clontech). The yeast cells, i.e., EGY/SH cells were co-transformed with the LexA-KRS vector and the B42-LR vector. The co-transformation was carried out using the Yeastmaker yeast transformation system2 kit (Clontech), according to the manufacturer's instruction. […] The cultured yeast cells were diluted with the said galactose medium, until the absorbance at 540 nm attains to about 0.15 to 0.2. The diluted culture (200 μL), containing the yeast cells, was added to each well of a 96-well plate. Each test compound was dissolved in dimethyl sulfoxide at a concentration of 20 mM and then the resulting solutions (1 μL) were added to each well. The plate was cultured at 30° C. for 6 days and then the absorbance of the each well was measured at 540 nm.
# as §1
# When KRS is bound to LR, the trans-activation domain is come close to the DNA-binding domain and the genes for synthesizing essential amino acids are expressed, which leads to normal growth of the transformed yeasts, thereby increasing the absorbance.
Compound,Yeast cell proliferation rates KRS-AIMP3 (%) [1],Yeast cell proliferation rates KRS-AIMP2 (%) [2],IC50 (A549 cells),Yeast cell proliferation rates KRS-LR (%) [3]
"CCC(C(=O)O)n1c(=NC(=O)c2cccc(Cl)c2)sc2cc(C)ccc21 (centres unmarked) [Example 59, 2-{2-[(3-chlorobenzoyl)imino]-6-methylbenzo[d]thiazol-3(2H)-yl}butanoic acid]",80.8%,97.7%,29.6 µM,31.7%
"CCC(C(=O)O)n1c(=NC(=O)c2ccc(C(F)(F)F)cc2)sc2ccccc21 (centres unmarked) [Example 64, 2-{2-[4-(trifluoromethyl)benzoylimino]benzo[d]thiazol-3(2H)-yl}butanoic acid]",104.1%,99.2%,20.1 µM,28.8%
"CCC(C(=O)O)n1c(=NC(=O)c2cccc(Cl)c2)sc2c(Cl)cccc21 (centres unmarked) [Example 310, 2-(7-chloro-2-((3-chlorobenzoyl)imino)benzo[d]thiazol-3(2H)-yl)butanoic acid]",105.4%,100.2%,6.5 µM,15.9%
"CCC(C(=O)O)n1c(=NC(=O)c2ccc(C)cc2)sc2c(F)cccc21 (centres unmarked) [Example 93, 2-[7-fluoro-2-(4-methylbenzoylimino)benzo[d]thiazol-3(2H)-yl]butanoic acid]",102.7%,88.5%,17.6 µM,33.2%
"Cc1ccc2c(sc(=NC(=O)c3cccc(Cl)c3)n2C(C)C(=O)O)c1F (centres unmarked) [Example 424, 2-(2-((3-chlorobenzoyl)imino)-7-fluoro-6-methylbenzo[d]thiazol-3(2H)-yl)propionic acid]",104.6%,99.9%,78 µM,15.6%
"CC(C(=O)O)n1c(=NC(=O)c2cccc(C(F)(F)F)c2)sc2c(F)cc(F)cc21 (centres unmarked) [Example 458, 2-(5,7-difluoro-2-((3-(trifluoromethyl)benzoyl)imino)benzo[d]thiazol-3(2H)-yl)propionic acid]",100.0%,96.4%,61 µM,30.8%
"O=C(O)Cn1c(=NC(=O)c2cccc(Cl)c2)sc2ccc(Cl)cc21 [Example 312, 2-(5-chloro-2-(3-chlorobenzoylimino)benzo[d]thiazol-3(2H)-yl)acetic acid]",99.0%,89.6%,36 µM,14.6%
"CCOc1ccc2c(c1)sc(=NC(=O)c1cccc(Cl)c1)n2C(C)C(=O)O (centres unmarked) [Example 55, 2-{2-[(3-chlorobenzoyl)imino]-6-ethoxybenzo[d]thiazol-3(2H)-yl}propionic acid]",105.3%,106.0%,22 µM,41.4%

# Continued by falling IC50 (A549 cells), values first:
Yeast cell proliferation rates KRS-AIMP3 (%) [1],Yeast cell proliferation rates KRS-AIMP2 (%) [2],IC50 (A549 cells),Yeast cell proliferation rates KRS-LR (%) [3],Compound
107.2%,104.0%,81.3 µM,12.6%,"CCC(C(=O)O)n1c(=NC(=O)c2cccc(Cl)c2)sc2c(F)c(F)ccc21 (centres unmarked) [Example 338, 2-(2-((3-chlorobenzoyl)imino)-6,7-difluorobenzo[d]thiazol-3(2H)-yl)butanoic acid]"
98.2%,102.0%,57 µM,30.2%,"Cc1ccc(C(=O)N=c2sc3c(Cl)cccc3n2C(C)C(=O)O)cc1 (centres unmarked) [Example 109, 2-[7-chloro-2-(4-methylbenzoylimino)benzo[d]thiazol-3(2H)-yl]propionic acid]"
104.1%,90.0%,37.9 µM,36.3%,"CC(C(=O)O)n1c(=NC(=O)c2cccc(Cl)c2)sc2cc(C(F)(F)F)ccc21 (centres unmarked) [Example 172, 2-(2-((3-chlorobenzoyl)imino)-6-(trifluoromethyl)benzo[d]thiazol-3(2H)-yl)propionic acid]"
99.1%,108.2%,25.4 µM,11.6%,"CC(C(=O)O)n1c(=NC(=O)c2cccc(Cl)c2)sc2c(F)c(Cl)ccc21 (centres unmarked) [Example 385, 2-(6-chloro-2-((3-chlorobenzoyl)imino)-7-fluorobenzo[d]thiazol-3(2H)-yl)propionic acid]"
102.1%,79.4%,18.9 µM,31.5%,"CCC(C(=O)O)n1c(=NC(=O)c2cccc(Cl)c2)sc2ccccc21 (centres unmarked) [Example 139, 2-[2-(3-chlorobenzoylimino)benzo[d]thiazol-3(2H)-yl]butanoic acid]"
100.0%,102.4%,16.7 µM,29.7%,"CCC(C(=O)O)n1c(=NC(=O)c2ccc(C)cc2)sc2cc(C(F)(F)F)ccc21 (centres unmarked) [Example 155, 2-[2-(4-methylbenzoylimino)-6-(trifluoromethyl)benzo[d]thiazol-3(2H)-yl]butanoic acid]"
106.5%,95.0%,14.7 µM,39.4%,"CCC(C(=O)O)n1c(=NC(=O)c2cccc(C(F)(F)F)c2)sc2ccccc21 (centres unmarked) [Example 142, 2-[2-(3-(trifluoromethyl)benzoylimino)benzo[d]thiazol-3(2H)-yl]butanoic acid]"
92.8%,82.1%,11.4 µM,33.2%,"CC(C(=O)O)n1c(=NC(=O)c2cccc(C(F)(F)F)c2)sc2ccccc21 (centres unmarked) [Example 133, 2-{2-[3-(trifluoromethyl)benzoylimino]benzo[d]thiazol-3(2H)-yl}propionic acid]"
106.3%,103.9%,8.3 µM,11.2%,"CCC(C(=O)O)n1c(=NC(=O)c2cccc(Cl)c2)sc2c(F)c(Cl)ccc21 (centres unmarked) [Example 386, 2-(6-chloro-2-((3-chlorobenzoyl)imino)-7-fluorobenzo[d]thiazol-3(2H)-yl)butanoic acid]"
